What was measured:
[1] = Determination of pKa of formulated lipids (TNS fluorescence assay in lipid nanoparticles); format: physicochemical
Protocol: As described elsewhere, the pKa of formulated cationic lipids is correlated with the effectiveness of LNPs for delivery of nucleic acids (see Jayaraman et al, Angewandte Chemie, International Edition (2012), 51(34), 8529-8533; Semple et al, Nature Biotechnology 28, 172-176 (2010)). The preferred range of pKa is ˜5 to ˜7. […] Lipid nanoparticles comprising cationic lipid/DSPC/cholesterol/PEG-lipid (50/10/38.5/1.5 mol %) in PBS at a concentration of 0.4 mM total lipid are prepared using the in-line process as described in Example 1. TNS is prepared as a 100 μM stock solution in distilled water. Vesicles are diluted to 24 μM lipid in 2 mL of buffered solutions containing, 10 mM HEPES, 10 mM MES, 10 mM ammonium acetate, 130 mM NaCl, where the pH ranged from 2.5 to 11. An aliquot of the TNS solution is added to give a final concentration of 1 μM and following vortex mixing fluorescence intensity is measured at room temperature in a SLM Aminco Series 2 Luminescence Spectrophotometer using excitation and emission wavelengths of 321 nm and 445 nm. A sigmoidal best fit analysis is applied to the fluorescence data and the pKa was measured as the pH giving rise to half-maximal fluorescence intensity.

[2] = test system: luciferase expression in the liver; test: In vivo luciferase mRNA expression rodent model (lipid nanoparticle formulations, liver luciferase); set-up: species or system mice; settings: LNP with FLuc mRNA, PEG-DMA; 0.5 mg mRNA/kg, tail vein injection, liver 4 hours after administration
Protocol: Lipid nanoparticles are prepared and tested according to the general procedures described in PCT Pub. Nos. WO 2015/199952 and WO 2017/004143, the full disclosures of which are incorporated herein by reference. Briefly, cationic lipid, DSPC, cholesterol and PEG-lipid are solubilized in ethanol at a molar ratio of about 50:10:38.5:1.5 or about 47.5:10:40.8:1.7. Lipid nanoparticles (LNP) are prepared at a total lipid to mRNA weight ratio of approximately 10:1 to 30:1. The mRNA is diluted to 0.2 mg/mL in 10 to 50 mM citrate or acetate buffer, pH 4. Syringe pumps are used to mix the ethanolic lipid solution with the mRNA aqueous solution at a ratio of about 1:5 to 1:3 (vol/vol) with total flow rates above 15 mL/min. The ethanol is then removed and the external buffer replaced with PBS by dialysis. Finally, the lipid nanoparticles are filtered through a 0.2 µm pore sterile filter. Lipid nanoparticle particle size is approximately 55-95 nm diameter, and in some instances approximately 70-90 nm diameter as determined by quasi-elastic light scattering using a Malvern Zetasizer Nano ZS (Malvern, UK).
Studies are performed in 6-8 week old female C57BL/6 mice (Charles River) or 8-10 week old CD-1 (Harlan) mice (Charles River) according to guidelines established by an institutional animal care committee (ACC) and the Canadian Council on Animal Care (CCAC). Varying doses of mRNA-lipid nanoparticle are systemically administered by tail vein injection and animals euthanized at a specific time point (e.g., 4 hours) post-administration. Liver and spleen are collected in pre-weighed tubes, weights determined, immediately snap frozen in liquid nitrogen and stored at −80° C. until processing for analysis.
For liver, approximately 50 mg is dissected for analyses in a 2 mL FastPrep tubes (MP Biomedicals, Solon OH). ¼″ ceramic sphere (MP Biomedicals) is added to each tube and 500 μL of Glo Lysis Buffer—GLB (Promega, Madison WI) equilibrated to room temperature is added to liver tissue. Liver tissues are homogenized with the FastPrep24 instrument (MP Biomedicals) at 2×6.0 m/s for 15 seconds. Homogenate is incubated at room temperature for 5 minutes prior to a 1:4 dilution in GLB and assessed using SteadyGlo Luciferase assay system (Promega). Specifically, 50 μL of diluted tissue homogenate is reacted with 50 μL of SteadyGlo substrate, shaken for 10 seconds followed by 5 minute incubation and then quantitated using a CentroXS^3 LB 960 luminometer (Berthold Technologies, Germany). The amount of protein assayed is determined by using the BCA protein assay kit (Pierce, Rockford IL). Relative luminescence units (RLU) are then normalized to total ug protein assayed. To convert RLU to ng luciferase a standard curve is generated with QuantiLum Recombinant Luciferase (Promega). […]

[3] = cationic lipid formulated in LNP (cationic lipid/DSPC/cholesterol/PEG-lipid 50/10/38.5/1.5 mol %), TNS fluorescence, pH giving half-maximal fluorescence, Table 2
[4] = formulated cationic lipid in LNP, TNS assay, Table 4

SMILES | pKa [1, 3] | pKa [1, 4] | Liver Luc @ 0.5 mg/kg (ng luc/g liver) [2] [ng luc/g liver]
CCCCCCCCC(CCCCCC)CN(CC(CCCCCC)CCCCCCCC)C(=O)CCN(C)C (stereo not shown) [Compound I-5] | 6.25 |  | 1417 ± 390
CCCCCCCCC(CCCCCC)CN(CCCCCCCCN(C)C)CC(CCCCCC)CCCCCCCC (stereo not shown) [Compound I-9] |  | 5.85 | 341 ± 126
CCCCCCCCC(CCCCCC)CN(CCCCCCCCCN(C)C)CC(CCCCCC)CCCCCCCC (stereo not shown) [Compound I-8] |  | 5.96 | 1761 ± 598
CCCCCCCCC(CCCCCC)CN(CC(CCCCCC)CCCCCCCC)C(=O)CCCCNC(C)C (stereo not shown) [Compound I-4] | 8.15 |  | 
CCCCCCCCC(CCCCCC)CN(CC(CCCCCC)CCCCCCCC)C(=O)CCCCCN(C)C (stereo not shown) [Compound I-2] | 7.42 |  | 
CCCCCCCCC(CCCCCC)CN(CC(CCCCCC)CCCCCCCC)C(=O)CCCCCCCN(C)C (stereo not shown) [Compound I-7] | 7.23 |  | 

Second part, led by results:

pKa [1, 3] | pKa [1, 4] | SMILES | Liver Luc @ 0.5 mg/kg (ng luc/g liver) [2] [ng luc/g liver]
6.49 |  | CCCCCCCCC(CCCCCC)CN(CC(CCCCCC)CCCCCCCC)C(=O)CCCCN(CCO)CCO (stereo not shown) [Compound I-3] | 
7.15 |  | CCCCCCCCC(CCCCCC)CN(CC(CCCCCC)CCCCCCCC)C(=O)CCCCCCCCN(C)C (stereo not shown) [Compound I-6] | 
6.68 |  | CCCCCCCCC(CCCCCC)CN(CC(CCCCCC)CCCCCCCC)C(=O)CCCCN(C)C (stereo not shown) [Compound I-1] | 206 ± 141

— patent US12583816B2, “Lipids for lipid nanoparticle delivery of active agents” (ACUITAS THERAPEUTICS, INC., priority 2018, dated 2026)
